Laboratory results published in patent publication US4166114A, “Aminoglycoside antibiotic derivatives and method of use” (Shionogi & Co., Ltd., priority 1976, dated 1979).
In brackets after ≈: the same amount, converted by molar mass. Read-outs that look alike come from different tables or passages of the source.

Tests used:
[1] = system: Pseudomonas aeruginosa TB-151; assay: MIC (minimum inhibitory concentration); type: cell-based; conditions: tobramycin resistant organism
[2] = system: Proteus vulgaris TB-162; assay: MIC (minimum inhibitory concentration); type: cell-based; conditions: tobramycin resistant organism
[3] = Pseudomonas aeruginosa, TB151, Table 3, read-out: MIC
[4] = Proteus vulgaris, TB162, Table 3, read-out: MIC
[5] = Pseudomonas aeruginosa, TB151, Table 2, read-out: MIC
[6] = Proteus vulgaris, TB162, Table 2, read-out: MIC

Row | Compound | MIC [1, 3] [µg/mL] | MIC [2, 4] [µg/mL] | MIC [1, 5] [µg/mL] | MIC [2, 6] [µg/mL] | MIC ([1]; Table 2) [µg/mL] | MIC ([2]; Table 2) [µg/mL]
1 | NC[C@H]1O[C@H](O[C@H]2[C@H](O)[C@@H](O[C@H]3O[C@H](CO)[C@@H](O)[C@H](N)[C@H]3O)[C@H](NC(=O)C3(O)CCNC3)C[C@@H]2N)[C@H](O)[C@@H](O)[C@@H]1O (stereo partly drawn) [KM-A der., 1-N-(3-hydroxypyrrolidine-3-carbonyl)-kanamycin A] | 6.25 (≈ 10.5 µM) | 3.13 (≈ 5.24 µM) | – | – | – | –
2 | NC[C@H]1O[C@H](O[C@H]2[C@H](O)[C@@H](O[C@H]3O[C@H](CO)[C@@H](O)[C@H](N)[C@H]3O)[C@H](N)C[C@@H]2N)[C@H](O)[C@@H](O)[C@@H]1O [KM-A, kanamycin A] | > 100 | > 100 | > 200 | > 200 | – | –
3 | CN[C@@H]1[C@@H](O)[C@@H](O[C@@H]2[C@@H](O)[C@H](O[C@H]3OC(CN)=CC[C@H]3N)[C@@H](N)C[C@H]2N)OC[C@]1(C)O [SSM, sisomicin] | – | – | > 200 | 12.5 (≈ 27.9 µM) | – | –
4 | NC[C@H]1O[C@H](O[C@H]2[C@H](O)[C@@H](O[C@H]3O[C@H](CO)[C@@H](O)[C@H](N)[C@H]3O)[C@H](NC(=O)C3(O)CCNCC3)C[C@@H]2N)[C@H](N)C[C@@H]1O [TOB der.] | 3.13 (≈ 5.26 µM) | 1.56 (≈ 2.62 µM) | 6.25 (≈ 10.5 µM) | 6.25 (≈ 10.5 µM) | – | –
5 | NC[C@H]1O[C@H](O[C@H]2[C@H](O)[C@@H](O[C@H]3O[C@H](CO)[C@@H](O)[C@H](N)[C@H]3O)[C@H](N)C[C@@H]2N)[C@H](N)C[C@@H]1O [TOB, tobramycin] | 100 (≈ 214 µM) | 6.25 (≈ 13.4 µM) | 100 (≈ 214 µM) | 12.5 (≈ 26.7 µM) | – | –
6 | gentamicin [GM] | – | – | – | – | 100 | 6.25
